Common to all, as to type: cell-based
One assay relates to 3T3 cells. Briefly: MTT cell proliferation assay, 3T3 cells. The following applies: Mus musculus, NIH3T3, 3T3 fibroblast cells, approximately 64-72 hours, 1 nM to 30 μM. The procedure:
(§1) The MTT cell proliferation assay was used to study the cytotoxic properties of the compounds. The assay was performed according to the method described by Roche Molecular Biochemicals, with minor modifications. The assay is based on the cleavage of the tetrazolium salt, MTT, in the presence of an electron-coupling reagent. The water-insoluble formazan salt produced must be solubilized in an additional step. Cells grown in a 96-well tissue culture plate were incubated with the MTT solution for approximately 4 hours. After this incubation period, a water-insoluble formazan dye formed. After solubilization, the formazan dye was quantitated using a scanning multi-well spectrophotometer (ELISA reader). […] The cells were seeded at 5,000-10,000 cells in each well of 96-well plate in 100 μL of fresh culture medium and were allowed to attach overnight. The stock solutions of the compounds were diluted in 100 μL cell culture medium to obtain eight concentrations of each test compound, ranging from 1 nM to 30 μM. […] All optical densities were measured at 490 nm using a Vmax Kinetic Microplate Reader (Molecular Devices). In most cases, the assay was performed in duplicate and the results were presented as a mean percent inhibition to the negative control±SE. The following formula was used to calculate the percent of inhibition: Inhibition (%)=(1−(ODo/OD))×100.
(§2) The compounds were tested against Z138, MM1S and 3T3 cells. The Z138 cell line is a mature B-cell acute lymphoblastic leukemia cell line derived from a patient with chronic lymphocytic leukemia. The MM1S cell line was established from the peripheral blood of a human multiple myeloma patient. 3T3 cells are standard fibroblast cells; they were originally isolated from Swiss mouse embryo tissue.
On the technique in general: Formazan colour is commonly taken as a measure of viable cells.

The test system of another assay is Z138 cells. Briefly: MTT cell proliferation assay, Z138 cells. Particulars: Homo sapiens, Z-138, approximately 64-72 hours, 1 nM to 30 μM. The procedure:
as §1, §2

In another assay the test system is MM1S cells. The assay is described as follows: MTT cell proliferation assay, MM1S cells. The following applies: Homo sapiens, MM1.S, MM1S multiple myeloma cells, approximately 64-72 hours, 1 nM to 30 μM. The procedure: as §1, §2

For orientation: IC50 means the concentration needed to halve the response being measured. A lower IC50 goes with greater potency.

The structures appear in SMILES notation.

Turning to `CCOC(=O)/C=C/c1cncc(-c2cc(C(F)(F)F)cc(C(F)(F)F)c2)n1` [Compound 101, ethyl (E)-3-(6-(3,5-bis(trifluoromethyl)phenyl)pyrazin-2-yl)acrylate], the concentration for half-maximal inhibition (IC50) in the assay with 3T3 cells, in the assay with Z138 cells and in the assay on MM1S cells was above 30 µM each time.

Consider `CCOC(=O)/C(Br)=C/c1cncc(-c2cc(C(F)(F)F)cc(C(F)(F)F)c2)n1` [Compound 102, ethyl (Z)-3-(6-(3,5-bis(trifluoromethyl)phenyl)pyrazin-2-yl)-2-bromoacrylate], for which the IC50 in the assay on 3T3 cells was above 30 µM; in the assay with Z138 cells it was 0.1 to 5 µM; in the assay with MM1S cells, 0.1 to 5 µM.

With `NC(=O)/C(Br)=C/c1cncc(-c2cc(C(F)(F)F)cc(C(F)(F)F)c2)n1` [Compound 103, (Z)-3-(6-(3,5-bis(trifluoromethyl)phenyl)pyrazin-2-yl)-2-bromoacrylamide], the half-inhibitory concentration (IC50) is above 30 µM in the assay with 3T3 cells, 0.1 to 5 µM with Z138 cells and 0.1 to 5 µM in the assay with MM1S cells.

As for `NC(=O)/C(=C\c1cncc(-c2cc(C(F)(F)F)cc(C(F)(F)F)c2)n1)c1cncnc1` [Compound 104, (Z)-3-(6-(3,5-bis(trifluoromethyl)phenyl)pyrazin-2-yl)-2-(pyrimidin-5-yl)acrylamide], the half-maximal inhibitory concentration (IC50) with 3T3 cells, in the assay with Z138 cells and with MM1S cells was above 30 µM throughout.

`CCOC(=O)/C=C/c1ccnc(-c2cc(C(F)(F)F)cc(C(F)(F)F)c2)n1` [Compound 105, ethyl (E)-3-(2-(3,5-bis(trifluoromethyl)phenyl)pyrimidin-4-yl)acrylate]: the IC50 in the assay on 3T3 cells, with Z138 cells and with MM1S cells was above 30 µM throughout.

For the compound `CCOC(=O)C(Br)C(Br)c1ccnc(-c2cc(C(F)(F)F)cc(C(F)(F)F)c2)n1` (centres unmarked) [Compound 106, ethyl 3-(2-(3,5-bis(trifluoromethyl)phenyl)pyrimidin-4-yl)-2,3-dibromopropanoate], the results for the 50% inhibitory concentration (IC50) with 3T3 cells, in the assay on Z138 cells and with MM1S cells were above 30 µM, 0.1 to 5 µM and 0.1 to 5 µM, respectively.

In the case of `NC(=O)/C(=C\c1ccnc(-c2cc(C(F)(F)F)cc(C(F)(F)F)c2)n1)c1cncnc1` [Compound 107, (Z)-3-(2-(3,5-bis(trifluoromethyl)phenyl)pyrimidin-4-yl)-2-(pyrimidin-5-yl)acrylamide], the IC50 in the assay with 3T3 cells was above 30 µM; with Z138 cells, 5 to 30 µM; in the assay on MM1S cells it was 0.1 to 5 µM.

`COC(=O)/C(Br)=C\c1nccc(-c2cc(C(F)(F)F)cc(C(F)(F)F)c2)n1` [Compound 108, methyl (E)-3-(4-(3,5-bis(trifluoromethyl)phenyl)pyrimidin-2-yl)-2-bromoacrylate]: the IC50 with 3T3 cells is above 30 µM; in the assay with Z138 cells, 5 to 30 µM; in the assay on MM1S cells, 5 to 30 µM.

For the compound `O=C(O)/C(=C/c1nccc(-c2cc(C(F)(F)F)cc(C(F)(F)F)c2)n1)c1cncnc1` [Compound 109, (E)-3-(4-(3,5-bis(trifluoromethyl)phenyl)pyrimidin-2-yl)-2-(pyrimidin-5-yl)acrylic acid], the half-maximal inhibitory concentration (IC50) in the assay on 3T3 cells, with Z138 cells and with MM1S cells was above 30 µM each time.

As to `NC(=O)/C(=C\c1nccc(-c2cc(C(F)(F)F)cc(C(F)(F)F)c2)n1)c1cncnc1` [Compound 110, (Z)-3-(4-(3,5-bis(trifluoromethyl)phenyl)pyrimidin-2-yl)-2-(pyrimidin-5-yl)acrylamide], the IC50 with 3T3 cells, with Z138 cells and with MM1S cells was above 30 µM in each case.

Consider `O=C(O)/C(=C/c1ccnc(-c2cc(C(F)(F)F)cc(C(F)(F)F)c2)n1)c1cncnc1` [Compound 111, (E)-3-(2-(3,5-bis(trifluoromethyl)phenyl)pyrimidin-4-yl)-2-(pyrimidin-5-yl)acrylic acid], for which the 50% inhibitory concentration (IC50) was above 30 µM in the assay with 3T3 cells, above 30 µM with Z138 cells and 5 to 30 µM in the assay on MM1S cells.

Regarding `NC(=O)/C(=C/c1ccnc(-c2cc(C(F)(F)F)cc(C(F)(F)F)c2)n1)c1cncnc1` [Compound 112, (E)-3-(2-(3,5-bis(trifluoromethyl)phenyl)pyrimidin-4-yl)-2-(pyrimidin-5-yl)acrylamide], the 50% inhibitory concentration (IC50) in the assay with 3T3 cells is above 30 µM; with Z138 cells, 0.1 to 5 µM; with MM1S cells it was 0.1 to 5 µM.

For `NC(=O)/C(=C/c1nccc(-c2cc(C(F)(F)F)cc(C(F)(F)F)c2)n1)c1cncnc1` [Compound 113, (E)-3-(4-(3,5-bis(trifluoromethyl)phenyl)pyrimidin-2-yl)-2-(pyrimidin-5-yl)acrylamide], the IC50 in the assay on 3T3 cells, in the assay on Z138 cells and in the assay on MM1S cells was above 30 µM throughout.

Consider `NC(=O)/C(=C/c1cncc(-c2cc(C(F)(F)F)cc(C(F)(F)F)c2)n1)c1cncnc1` [Compound 114, (E)-3-(6-(3,5-bis(trifluoromethyl)phenyl)pyrazin-2-yl)-2-(pyrimidin-5-yl)acrylamide], for which the IC50 in the assay on 3T3 cells, in the assay on Z138 cells and in the assay with MM1S cells was above 30 µM throughout.

In the case of `COC(=O)/C(Br)=C/c1cncc(-c2cc(C(F)(F)F)cc(C(F)(F)F)c2)n1` [Compound 115, methyl (Z)-3-(6-(3,5-bis(trifluoromethyl)phenyl)pyrazin-2-yl)-2-bromoacrylate], the concentration for half-maximal inhibition (IC50) lay within 5 to 30 µM with 3T3 cells, 0.1 to 5 µM in the assay on Z138 cells and 0.1 to 5 µM in the assay with MM1S cells.

Regarding `COC(=O)/C(=C/c1cncc(-c2cc(C(F)(F)F)cc(C(F)(F)F)c2)n1)c1cncnc1` [Compound 116, methyl (E)-3-(6-(3,5-bis(trifluoromethyl)phenyl)pyrazin-2-yl)-2-(pyrimidin-5-yl)acrylate], the IC50 is above 30 µM with 3T3 cells, 5 to 30 µM in the assay with Z138 cells and 5 to 30 µM in the assay on MM1S cells.

Take `O=C(O)/C(=C/c1cncc(-c2cc(C(F)(F)F)cc(C(F)(F)F)c2)n1)c1cncnc1` [Compound 117, (E)-3-(6-(3,5-bis(trifluoromethyl)phenyl)pyrazin-2-yl)-2-(pyrimidin-5-yl)acrylic acid]: the IC50 in the assay with 3T3 cells, in the assay on Z138 cells and with MM1S cells was above 30 µM each time.

Take `Cc1ccc(/C(=C\c2ccnc(-c3cc(C(F)(F)F)cc(C(F)(F)F)c3)n2)C(N)=O)cc1F` [Compound 118, (E)-3-(2-(3,5-bis(trifluoromethyl)phenyl)pyrimidin-4-yl)-2-(3-fluoro-4-methylphenyl)acrylamide]: the 50% inhibitory concentration (IC50) with 3T3 cells, with Z138 cells and in the assay on MM1S cells was above 30 µM each time.

With `N#Cc1cncc(/C(=C\c2ccnc(-c3cc(C(F)(F)F)cc(C(F)(F)F)c3)n2)C(N)=O)c1` [Compound 119, (E)-3-(2-(3,5-bis(trifluoromethyl)phenyl)pyrimidin-4-yl)-2-(5-cyanopyridin-3-yl)acrylamide], the IC50 in the assay with 3T3 cells was above 30 µM; in the assay on Z138 cells it was 0.1 to 5 µM; in the assay on MM1S cells, 0.1 to 5 µM.

`NC(=O)/C(=C/c1ccnc(-c2cc(C(F)(F)F)cc(C(F)(F)F)c2)n1)c1ccccc1` [Compound 120, (E)-3-(2-(3,5-bis(trifluoromethyl)phenyl)pyrimidin-4-yl)-2-phenylacrylamide]: the IC50 in the assay with 3T3 cells, in the assay on Z138 cells and with MM1S cells was above 30 µM in each case.

In the case of `NC(=O)/C(=C/c1ccnc(-c2cc(C(F)(F)F)cc(C(F)(F)F)c2)n1)c1cncc(F)c1` [Compound 121, (E)-3-(2-(3,5-bis(trifluoromethyl)phenyl)pyrimidin-4-yl)-2-(5-fluoropyridin-3-yl)acrylamide], the values for the concentration for half-maximal inhibition (IC50) with 3T3 cells, with Z138 cells and with MM1S cells were above 30 µM, above 30 µM and 0.1 to 5 µM, respectively.

In the case of `NC(=O)/C(=C/c1ccnc(-c2cc(C(F)(F)F)cc(C(F)(F)F)c2)n1)c1ccc(Cl)c(F)c1` [Compound 133, (E)-3-(2-(3,5-bis(trifluoromethyl)phenyl)pyrimidin-4-yl)-2-(4-chloro-3-fluorophenyl)acrylamide], the half-maximal inhibitory concentration (IC50) in the assay with 3T3 cells was above 30 µM; with Z138 cells, below 0.1 µM.

In the case of `NC(=O)/C(=C/c1ccnc(-c2cc(C(F)(F)F)cc(C(F)(F)F)c2)n1)c1cccc(S(=O)(=O)N2CCC(F)(F)CC2)c1` [Compound 138, (E)-3-(2-(3,5-bis(trifluoromethyl)phenyl)pyrimidin-4-yl)-2-(3-((4,4-difluoropiperidin-1-yl)sulfonyl)phenyl)acrylamide], the values for the half-maximal inhibitory concentration (IC50) with 3T3 cells and in the assay with Z138 cells were above 30 µM and 0.1 to 5 µM, respectively.

On to `NC(=O)/C(=C/c1ccnc(-c2cc(C(F)(F)F)cc(C(F)(F)F)c2)n1)c1cccc(S(=O)(=O)N2CC(F)(F)C2)c1` [Compound 139, (E)-3-(2-(3,5-bis(trifluoromethyl)phenyl)pyrimidin-4-yl)-2-(3-((3,3-difluoroazetidin-1-yl)sulfonyl)phenyl)acrylamide], for which the half-inhibitory concentration (IC50) with Z138 cells and in the assay with MM1S cells was above 30 µM each time.

In the case of `N#Cc1ccccc1/C(=C\c1ccnc(-c2cc(C(F)(F)F)cc(C(F)(F)F)c2)n1)C(N)=O` [Compound 154, (E)-3-(2-(3,5-bis(trifluoromethyl)phenyl)pyrimidin-4-yl)-2-(2-cyanophenyl)acrylamide], the 50% inhibitory concentration (IC50) with Z138 cells is above 30 µM; in the assay on MM1S cells, 0.1 to 5 µM.
